Reference: publication PMC3462775 (PLoS ONE, 2012)
Bridge positions count the residues as written; N and C are the ends. Square brackets hold non-standard residues; d marks the D form. Peptide text beside a SMILES is read from it. I, II: the chains in the order shown. βAla = NCCC(=O)O

Legend:
[1] = Calcein release from liposomes mimicking the membrane of S. aureus; conditions: CL/PG 4∶6 liposomes, 50 µM lipid, 10 min at 20°C, peptide 0,5 to 15 µM, fluorescence 490/517 nm, three independent experiments
From the text: To investigate interaction of peptides M33-D and M33-L with the bacterial membrane, including possible perturbation, we used vesicles with two lipid compositions to mimic the membrane of S. aureus (CL/PG, 4∶6 mol/mol) and E. coli (PE/PG, 7∶3 mol/mol). […] The peptide-induced effect was dose-dependent in both vesicle lipid compositions. […] No significant differences in the effects induced by M33-D and M33-L were evident, although the D peptide seemed slightly more efficient towards CL/PG liposomes at doses above 8 µM. […] The greater perturbing effect of both forms of M33 on PE/PG vesicles, compared to vesicles containing cardiolipin, was evident.
Calcein-loaded liposomes of two different composition (PE/PG, 7∶3 mol/mol and CL/PG, 4∶6 mol/mol) were prepared as follows. […] Lipid concentration of vesicles was measured by the method of Stewart and the final concentration used for all measurements was 50 µM. Calcein fluorescence in the vesicles is self-quenched and leakage was measured by relief of quenching; the measurements were carried out at 517 nm, exciting at 490 nm, with a Perkin-Elmer LS 50B spectrofluorimeter. […] Leakage was calculated by the equation: [drawing 1] where F and Ft are fluorescence […] addition of detergent and F0 the fluorescence of intact vesicles.

[2] = system: Enterobacteriaceae; assay: MIC comparison M33-D vs M33-L, Enterobacteriaceae; type: cell-based
Description: MICs were determined using a standard microdilution assay as recommended by the Clinical and Laboratory Standards Institute. Assays were performed in triplicate using cation-supplemented Mueller-Hinton (MH) broth (Becton Dickinson, Franklin Lakes, NJ, USA) and a bacterial inoculum of 5x10^4 CFU/well, in a final volume of 100 µl. The tested concentrations ranged from 0.1 µM to 24 µM for both peptides. Results were recorded after 18–20 h of incubation at 37°C.

Structure (SMILES)	peptide concentration giving maximum calcein release [1]	fold lower activity (MIC) than M33-L [2]
CC[C@@H](C)[C@@H](NC(=O)[C@@H](CCCCN)NC(=O)[C@H](N)CCCCN)C(=O)N[C@H](CCCNC(=N)N)C(=O)N[C@@H](C(=O)N[C@H](CCCNC(=N)N)C(=O)N[C@H](CC(C)C)C(=O)N[C@H](CO)C(=O)N[C@H](C)C(=O)NCCCC[C@H](NC(=O)[C@@H](C)NC(=O)[C@@H](CO)NC(=O)[C@@H](CC(C)C)NC(=O)[C@@H](CCCNC(=N)N)NC(=O)[C@H](NC(=O)[C@@H](CCCNC(=N)N)NC(=O)[C@H](NC(=O)[C@@H](CCCCN)NC(=O)[C@H](N)CCCCN)[C@H](C)CC)C(C)C)C(=O)NCCCC[C@H](NC(=O)[C@H](CCCCNC(=O)[C@@H](C)NC(=O)[C@@H](CO)NC(=O)[C@@H](CC(C)C)NC(=O)[C@@H](CCCNC(=N)N)NC(=O)[C@H](NC(=O)[C@@H](CCCNC(=N)N)NC(=O)[C@H](NC(=O)[C@@H](CCCCN)NC(=O)[C@H](N)CCCCN)[C@H](C)CC)C(C)C)NC(=O)[C@@H](C)NC(=O)[C@@H](CO)NC(=O)[C@@H](CC(C)C)NC(=O)[C@@H](CCCNC(=N)N)NC(=O)[C@H](NC(=O)[C@@H](CCCNC(=N)N)NC(=O)[C@H](NC(=O)[C@@H](CCCCN)NC(=O)[C@H](N)CCCCN)[C@H](C)CC)C(C)C)C(=O)NCCC(=O)O)C(C)C [M33-D] (I: H-[dK][dK][dI][dR][dV][dR][dL][dS][dA]KK[βAla]-OH / II: H-[dK][dK][dI][dR][dV][dR][dL][dS][dA]K / III: H-[dK][dK][dI][dR][dV][dR][dL][dS][dA] / IV: H-[dK][dK][dI][dR][dV][dR][dL][dS][dA]; amide I:10-IV:C, I:11-II:C, II:10-III:C; N-terminus assumed)	greater than 10 µM	2–4 fold
CC[C@H](C)[C@H](NC(=O)[C@H](CCCCN)NC(=O)[C@@H](N)CCCCN)C(=O)N[C@@H](CCCNC(=N)N)C(=O)N[C@H](C(=O)N[C@@H](CCCNC(=N)N)C(=O)N[C@@H](CC(C)C)C(=O)N[C@@H](CO)C(=O)N[C@@H](C)C(=O)NCCCC[C@H](NC(=O)[C@H](C)NC(=O)[C@H](CO)NC(=O)[C@H](CC(C)C)NC(=O)[C@H](CCCNC(=N)N)NC(=O)[C@@H](NC(=O)[C@H](CCCNC(=N)N)NC(=O)[C@@H](NC(=O)[C@H](CCCCN)NC(=O)[C@@H](N)CCCCN)[C@@H](C)CC)C(C)C)C(=O)NCCCC[C@H](NC(=O)[C@H](CCCCNC(=O)[C@H](C)NC(=O)[C@H](CO)NC(=O)[C@H](CC(C)C)NC(=O)[C@H](CCCNC(=N)N)NC(=O)[C@@H](NC(=O)[C@H](CCCNC(=N)N)NC(=O)[C@@H](NC(=O)[C@H](CCCCN)NC(=O)[C@@H](N)CCCCN)[C@@H](C)CC)C(C)C)NC(=O)[C@H](C)NC(=O)[C@H](CO)NC(=O)[C@H](CC(C)C)NC(=O)[C@H](CCCNC(=N)N)NC(=O)[C@@H](NC(=O)[C@H](CCCNC(=N)N)NC(=O)[C@@H](NC(=O)[C@H](CCCCN)NC(=O)[C@@H](N)CCCCN)[C@@H](C)CC)C(C)C)C(=O)NCCC(=O)O)C(C)C [M33-L] (I: H-KKIRVRLSAKK[βAla]-OH / II: H-KKIRVRLSAK / III: H-KKIRVRLSA / IV: H-KKIRVRLSA; amide I:10-IV:C, I:11-II:C, II:10-III:C; N-terminus assumed)	greater than 10 µM	–
